Results from patent publication US10344019B2 (priority 2010, dated 2019).
Where two headings read alike, the source gives them in different places.

Tests used:
Assay in all cases: microbe, parasite or virus in culture
Format in all cases: cell-based
[1] = tested on: HCV 1a RLuc cells (dicistronic genotype 1a H77 replicon, RLuc reporter); details: read-out: 1a
Method in brief: (§1)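 Replicons used: genotype 1b Con1, 1a H77, 2a JFH-1, and a 2a JFH-1 chimera with J6-strain NS5A (M31 present), all dicistronic.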

[2] = tested on: HCV 1b RLuc cells (dicistronic genotype 1b Con1 replicon, RLuc reporter)
Method in brief: as §1

[3] = tested on: HCV 2a JFH-1 Rluc cells (dicistronic genotype 2a JFH-1 replicon, RLuc reporter); details: genotype 2a JFH-1 replicon, read-out: 2a JFH
Method in brief: as §1

[4] = tested on: HCV 3a RLuc cells (NS5A chimeric genotype 1b Con1 replicon with consensus genotype 3a NS5A gene)
Method in brief: (§2)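 Replicon cells stably carrying the listed RLuc-encoding dicistronic replicons were seeded and treated with DMSO serial dilutions of compound (10 mM stocks) diluted into culture medium. After 72 h, cells were lysed and Renilla luciferase activity measured. EC50 was derived by non-linear regression.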

[5] = tested on: HCV 4a Rluc cells (NS5A chimeric genotype 1b Con1 replicon with genotype 4a NS5A gene); details: Hepatitis C virus, read-out: 4a
Method in brief: as §2

[6] = Hepatitis C virus, 72 h, Table 2, genotype 1a H77 replicon, 72 hours
[7] = Hepatitis C virus, 72 h, read-out: 1b (nM)
[8] = Hepatitis C virus, 72 h, Table 2, 72 hours
[9] = Hepatitis C virus, read-out: 3a, Table 2, genotype 3a NS5A chimeric replicon
[10] = Hepatitis C virus, genotype 1a replicon
[11] = Hepatitis C virus, read-out: 1b (nM)
[12] = Hepatitis C virus, read-out: 3a, genotype 3a replicon
[13] = Hepatitis C virus, genotype 1a H77 replicon, RLuc reporter
[14] = Hepatitis C virus, RLuc reporter
[15] = Hepatitis C virus, read-out: 3a, genotype 3a NS5A chimeric 1b Con1 replicon

SMILES: COC(=O)N[C@H](C(=O)N1CCC[C@H]1c1ncc(-c2ccc3cc(-c4ccc(-c5cnc([C@@H]6[C@H]7CC[C@H](C7)N6C(=O)[C@H](NC(=O)OC)c6ccccc6)[nH]5)cc4)ccc3c2)[nH]1)C(C)C [Example 48]
- EC50 [1, 6]: 0.001 to 0.999 nM
- EC50 [2, 7]: 0.007 nM
- EC50 [3, 8]: 1 to 44 nM
- EC50 [4, 9]: 1 to 4.99 nM
- EC50 [5]: 0.001 to 0.99 nM

SMILES: COC(=O)N[C@H](C(=O)N1CCC[C@H]1c1ncc(-c2ccc(-c3ccc4c(ccc5nc([C@@H]6CC7(CN6C(=O)[C@@H](NC(=O)OC)C6CCOCC6)OCCO7)[nH]c54)c3)cc2)[nH]1)C(C)C [Example 91]
- EC50 [1, 6]: 0.001 to 0.999 nM
- EC50 [2, 7]: 0.1 nM
- EC50 [3, 8]: 0.001 to 0.999 nM
- EC50 [4, 9]: 1 to 4.99 nM
- EC50 [5]: 0.001 to 0.99 nM

SMILES: COC(=O)N[C@H](C(=O)N1CCC[C@H]1c1nc2c([nH]1)-c1ccc(-c3ccc4cc(-c5cnc([C@@H]6CCCN6C(=O)[C@H](NC(=O)OC)c6ccccc6)[nH]5)ccc4c3)cc1CC2)C1CCOCC1 [Example 279]
- EC50 ([1]; genotype 1a H77 replicon, RLuc reporter): 1 to 44 nM
- EC50 ([2]; read-out: 1b): 0.031 nM
- EC50 ([3]; RLuc reporter): 1 to 44 nM
- EC50 ([4]; read-out: 3a, genotype 3a NS5A chimeric 1b Con1 replicon): 0.001 to 0.99 nM
- EC50 [5]: 0.001 to 0.99 nM

SMILES: COC(=O)N[C@H](C(=O)N1CCC[C@H]1c1nc2ccc3cc(-c4ccc(-c5cnc([C@@H]6CC7(CN6C(=O)[C@H](NC(=O)OC)c6ccccc6)OCCO7)[nH]5)cc4)ccc3c2[nH]1)C(C)C [Example 296]
- EC50 [1, 10]: 0.001 to 0.999 nM
- EC50 [2, 11]: 0.063 nM
- EC50 ([3]; Hepatitis C virus): 0.001 to 0.999 nM
- EC50 [4, 12]: 0.001 to 0.99 nM
- EC50 [5]: 0.001 to 0.99 nM

SMILES: COC(=O)N[C@H](C(=O)N1CCC[C@H]1c1nc(Cl)c(-c2ccc(-c3ccc4cc(-c5[nH]c([C@@H]6CCCN6C(=O)[C@@H](NC(=O)OC)C(C)C)nc5Cl)ccc4c3)cc2)[nH]1)C(C)C [Example 380]
- EC50 [1, 10]: 0.001 to 0.999 nM
- EC50 [2, 11]: 0.006 nM
- EC50 ([3]; Hepatitis C virus): 0.001 to 0.999 nM
- EC50 [4, 12]: > 5 nM
- EC50 [5]: 0.001 to 0.99 nM

SMILES: COC(=O)N[C@H](C(=O)N1CCC[C@H]1c1ncc(-c2ccc3cc(-c4ccc5c(ccc6nc([C@@H]7[C@H]8CC[C@H](C8)N7C(=O)[C@H](NC(=O)OC)c7ccccc7)[nH]c65)c4)ccc3c2)[nH]1)C1CCOCC1 [Example 327]
- EC50 [1, 10]: 0.001 to 0.999 nM
- EC50 [2, 11]: 0.011 nM
- EC50 ([3]; Hepatitis C virus): 0.001 to 0.999 nM
- EC50 [4, 12]: 0.001 to 0.99 nM
- EC50 [5]: 0.001 to 0.99 nM

SMILES: COC(=O)N[C@H](C(=O)N1CCC[C@H]1c1nc(-c2ccc3cc(-c4ccc(-c5cnc([C@@H]6CCCN6C(=O)[C@H](NC(=O)OC)c6ccccc6)[nH]5)cc4)sc3c2)c[nH]1)C(C)C [Example 253]
- EC50 [1, 13]: 0.001 to 0.999 nM
- EC50 [2, 11]: 0.005 nM
- EC50 [3, 14]: 0.001 to 0.999 nM
- EC50 [4, 15]: 0.001 to 0.99 nM
- EC50 [5]: 0.001 to 0.99 nM

SMILES: COC(=O)N[C@H](C(=O)N1CCC[C@H]1c1ncc(-c2ccc(-c3ccc4c(c3)C(F)(F)c3cc(-c5cnc([C@@H]6CCCN6C(=O)[C@@H](NC(=O)OC)C(C)(C)C)[nH]5)ccc3-4)cc2)[nH]1)C1CCOCC1 [Example 201]
- EC50 [1, 13]: 0.001 to 0.999 nM
- EC50 [2, 11]: 0.018 nM
- EC50 [3, 14]: 1 to 44 nM
- EC50 [4, 15]: > 5 nM
- EC50 [5]: 0.001 to 0.99 nM

SMILES: CCN(CC)C(C(=O)N1CCC[C@H]1c1ncc(-c2ccc(-c3ccc4c(c3)C(F)(F)c3cc(-c5cnc([C@@H]6CCCN6C(=O)C(NC(=O)OC)C(C)C)[nH]5)ccc3-4)cc2)[nH]1)c1ccccc1 (stereo partly drawn) [Example 200]
- EC50 [1, 13]: 1 to 44 nM
- EC50 [2, 11]: 0.009 nM
- EC50 [3, 14]: 1 to 44 nM
- EC50 [4, 15]: 1 to 4.99 nM
- EC50 [5]: 0.001 to 0.99 nM

SMILES: COC(=O)N[C@H](C(=O)N1CC2(C[C@H]1c1ncc(-c3ccc4cc(-c5ccc(-c6cnc([C@@H]7CCCN7C(=O)[C@H](NC(=O)OC)c7ccccc7)[nH]6)cc5)ccc4c3)[nH]1)OCCO2)C(C)C [Example 43]
- EC50 [1, 6]: 0.001 to 0.999 nM
- EC50 [2, 7]: 0.009 nM
- EC50 [3, 8]: 0.001 to 0.999 nM
- EC50 [4, 9]: 1 to 4.99 nM
- EC50 [5]: 0.001 to 0.99 nM

SMILES: COC(=O)NC(C(=O)N1CCC[C@H]1c1ncc(-c2ccc(-c3ccc4cc(-c5cnc([C@@H]6CCCN6C(=O)C(NC(=O)OC)C(C)C)[nH]5)ccc4c3)cc2)[nH]1)C(C)C (stereo partly drawn) [Example 136]
- EC50 [1, 13]: 0.001 to 0.999 nM
- EC50 [2, 11]: 0.005 nM
- EC50 [3, 14]: 0.001 to 0.999 nM
- EC50 [4, 15]: 0.001 to 0.99 nM
- EC50 [5]: 0.001 to 0.99 nM

SMILES: COC(=O)N[C@H](C(=O)N1CCC[C@H]1c1ncc(-c2ccc3c(c2)CCc2cc(-c4cnc([C@@H]5[C@H]6CC[C@H](C6)N5C(=O)[C@@H](NC(=O)OC)[C@@H](C)OC)[nH]4)ccc2-3)[nH]1)[C@@H](C)OC [Example 73]
- EC50 [1, 6]: 0.001 to 0.999 nM
- EC50 [2, 7]: 0.038 nM
- EC50 [3, 8]: 0.001 to 0.999 nM
- EC50 [4, 9]: 1 to 4.99 nM
- EC50 [5]: 0.001 to 0.99 nM
